{"source": "patent US5157051A", "about": "“Composition and use of 3-thiocyano-2-halo-2-propenenitriles as antimicrobial agents” (The Dow Chemical Company, priority 1992, dated 1992)", "key": {"Salmonella choleraesuis": {"test_system": "Salmonella choleraesuis", "assay": "MIC, Salmonella choleraesuis (Sc), nutrient agar", "assay_type": "cell-based, Salmonella choleraesuis ATCC 10708", "settings": "Salmonella enterica, 30° C., 48 hours, read-out: Minimum Inhibitory Concentration, Sc", "description": "(§1) The minimum inhibitory concentration (MIC) for the compounds is determined for 9 bacteria, using nutrient agar, and 7 yeast and fungi, using malt yeast agar. A one percent solution of the test compound is prepared in a mixture of acetone and water. Nutrient agar is prepared at pH 6.8, representing a neutral medium, and at pH 8.2, representing an alkaline medium. The nutrient agars are prepared by adding 23 g of nutrient agar to one-liter of deionized water. In addition, the alkaline medium is prepared by adjusting a 0.04M solution of N-[tris-(hydroxymethyl)methyl]-glycine buffered deionized water with concentrated sodium hydroxide to a pH of […]. Malt yeast agar is prepared by adding 3 g yeast extract and 45 g malt agar per liter of dionized water. The specific agar is dispensed in 30 ml aliquots into 25×200 mm test tubes, capped and autoclaved for 15 minutes at 115° C. The test tubes containing the agar are cooled in a water bath until the temperature of the agar is 48 ° C. […]\n(§2) The inoculated petri plates are incubated at 30° C. for 48 hours and then read to determine if the test compound which is incorporated into the agar prevented growth of the respective bacteria. […]"}, "Aureobasidium pullulan": {"test_system": "Aureobasidium pullulan", "assay": "MIC, Aureobasidium pullulan (Ap), malt yeast agar", "assay_type": "cell-based, Aureobasidium pullulan ATCC 16622", "settings": "30° C., read after 48 hours for yeast and 72 hours for fungi, read-out: Minimum Inhibitory Concentration, Ap", "description": "as §1\n(§3) The inoculation with the yeast and fungi is accomplished as follows. […] The petri plates are incubated at 30° C. and read after 48 hours for yeast and 72 hours for fungi. […]"}, "Escherichia coli": {"test_system": "Escherichia coli", "assay": "MIC, Escherichia coli (Ec), nutrient agar", "assay_type": "cell-based, Escherichia coli ATCC 11229", "settings": "30° C., 48 hours, read-out: Minimum Inhibitory Concentration, Ec", "description": "as §1, §2"}, "Bacillus subtilis": {"test_system": "Bacillus subtilis", "assay": "MIC, Bacillus subtilis (Bs), nutrient agar", "assay_type": "cell-based, Bacillus subtilis ATCC 8473", "settings": "30° C., 48 hours, read-out: Minimum Inhibitory Concentration, Bs", "description": "as §1, §2"}, "Saccharomyces cerevisiae": {"test_system": "Saccharomyces cerevisiae", "assay": "MIC, Saccharomyces cerevisiae (Sc), malt yeast agar", "assay_type": "cell-based, Saccharomyces cerevisiae ATCC 4105", "settings": "30° C., 48 hours (yeast), read-out: Minimum Inhibitory Concentration, Sc", "description": "as §1, §3"}, "Staphylococcus aureus": {"test_system": "Staphylococcus aureus", "assay": "MIC, Staphylococcus aureus (Sa), nutrient agar", "assay_type": "cell-based, Staphylococcus aureus ATCC 6538", "settings": "30° C., 48 hours, read-out: Minimum Inhibitory Concentration, Sa", "description": "as §1, §2"}, "Enterobacter aerogenes": {"test_system": "Enterobacter aerogenes", "assay": "MIC, Enterobacter aerogenes (Ea), nutrient agar", "assay_type": "cell-based, Enterobacter aerogenes ATCC 13048", "settings": "Klebsiella aerogenes, 30° C., 48 hours, read-out: Minimum Inhibitory Concentration, Ea", "description": "as §1, §2"}, "Klebsiella pneumoniae": {"test_system": "Klebsiella pneumoniae", "assay": "MIC, Klebsiella pneumoniae (Kp), nutrient agar", "assay_type": "cell-based, Klebsiella pneumoniae ATCC 8308", "settings": "30° C., 48 hours, read-out: Minimum Inhibitory Concentration, Kp", "description": "as §1, §2"}, "Proteus vulgaris": {"test_system": "Proteus vulgaris", "assay": "MIC, Proteus vulgaris (Pv), nutrient agar", "assay_type": "cell-based, Proteus vulgaris ATCC 881", "settings": "30° C., 48 hours, read-out: Minimum Inhibitory Concentration, Pv", "description": "as §1, §2"}, "Trichoderma viride": {"test_system": "Trichoderma viride", "assay": "MIC, Trichoderma viride (Tv), malt yeast agar", "assay_type": "cell-based, Trichoderma viride ATCC 8678", "settings": "30° C., 72 hours (fungi), read-out: Minimum Inhibitory Concentration, Tv", "description": "as §1, §3"}, "Candida albicans": {"test_system": "Candida albicans", "assay": "MIC, Candida albicans (Ca), malt yeast agar", "assay_type": "cell-based, Candida albicans ATCC 10231", "settings": "30° C., 48 hours (yeast), read-out: Minimum Inhibitory Concentration, Ca", "description": "as §1, §3"}, "Aspergillus niger": {"test_system": "Aspergillus niger", "assay": "MIC, Aspergillus niger (An), malt yeast agar", "assay_type": "cell-based, Aspergillus niger ATCC 16404", "settings": "30° C., 72 hours (fungi), read-out: Minimum Inhibitory Concentration, An", "description": "as §1, §3"}, "Fusarium oxysporum": {"test_system": "Fusarium oxysporum", "assay": "MIC, Fusarium oxysporum (Fo), malt yeast agar", "assay_type": "cell-based, Fusarium oxysporum ATCC 48112", "settings": "30° C., 72 hours (fungi), read-out: Minimum Inhibitory Concentration, Fo", "description": "as §1, §3"}, "Penicillium chrysogenum": {"test_system": "Penicillium chrysogenum", "assay": "MIC, Penicillium chrysogenum (Pc), malt yeast agar", "assay_type": "cell-based, Penicillium chrysogenum ATCC 9480", "settings": "30° C., 72 hours (fungi), read-out: Minimum Inhibitory Concentration, Pc", "description": "as §1, §3"}, "[1]": {"test_system": "Pseudomonas aeruginosa (PRD-10)", "assay": "MIC, Pseudomonas aeruginosa (PRD-10), nutrient agar", "assay_type": "cell-based, Pseudomonas aeruginosa ATCC 15442", "settings": "30° C., 48 hours, read-out: Minimum Inhibitory Concentration, PRD", "description": "as §1, §2"}, "Pseudomonas aeruginosa": {"test_system": "Pseudomonas aeruginosa", "assay": "MIC, Pseudomonas aeruginosa (Pa), nutrient agar", "assay_type": "cell-based, Pseudomonas aeruginosa ATCC 10145", "settings": "30° C., 48 hours, read-out: Minimum Inhibitory Concentration, Pa", "description": "as §1, §2"}}, "note": "Read-outs that look alike come from different tables or passages of the source."}
{"smiles": "N#CSC=C(Cl)C#N", "note": "[3-Thiocyano-2-chloro-2-propenenitrile, 3-Thiocyano-2-Chloro-2-Propenenitrile]", "values": [{"measurement": "MIC", "setting": "Salmonella choleraesuis; pH 6.8, nutrient agar", "value": 100, "unit": "µg/mL"}, {"measurement": "MIC", "setting": "Salmonella choleraesuis; pH 8.2, nutrient agar", "value": "> 500", "unit": "µg/mL"}, {"measurement": "MIC", "setting": "Aureobasidium pullulan", "value": 2.5, "unit": "µg/mL"}, {"measurement": "MIC", "setting": "Escherichia coli; pH 6.8, nutrient agar", "value": 100, "unit": "µg/mL"}, {"measurement": "MIC", "setting": "Escherichia coli; pH 8.2, nutrient agar", "value": "> 500", "unit": "µg/mL"}, {"measurement": "MIC", "setting": "Bacillus subtilis; pH 6.8, nutrient agar", "value": 25, "unit": "µg/mL"}, {"measurement": "MIC", "setting": "Bacillus subtilis; pH 8.2, nutrient agar", "value": 500, "unit": "µg/mL"}, {"measurement": "MIC", "setting": "Saccharomyces cerevisiae", "value": 2.5, "unit": "µg/mL"}, {"measurement": "MIC", "setting": "Staphylococcus aureus; pH 6.8, nutrient agar", "value": 50, "unit": "µg/mL"}, {"measurement": "MIC", "setting": "Staphylococcus aureus; pH 8.2, nutrient agar", "value": 500, "unit": "µg/mL"}, {"measurement": "MIC", "setting": "Enterobacter aerogenes; pH 6.8, nutrient agar", "value": 250, "unit": "µg/mL"}, {"measurement": "MIC", "setting": "Enterobacter aerogenes; pH 8.2, nutrient agar", "value": "> 500", "unit": "µg/mL"}, {"measurement": "MIC", "setting": "Klebsiella pneumoniae; pH 6.8, nutrient agar", "value": 100, "unit": "µg/mL"}, {"measurement": "MIC", "setting": "Klebsiella pneumoniae; pH 8.2, nutrient agar", "value": 500, "unit": "µg/mL"}, {"measurement": "MIC", "setting": "Proteus vulgaris; pH 6.8, nutrient agar", "value": 50, "unit": "µg/mL"}, {"measurement": "MIC", "setting": "Proteus vulgaris; pH 8.2, nutrient agar", "value": "> 500", "unit": "µg/mL"}, {"measurement": "MIC", "setting": "Trichoderma viride", "value": 5, "unit": "µg/mL"}, {"measurement": "MIC", "setting": "Candida albicans", "value": 2.5, "unit": "µg/mL"}, {"measurement": "MIC", "setting": "Aspergillus niger", "value": 2.5, "unit": "µg/mL"}, {"measurement": "MIC", "setting": "Fusarium oxysporum", "value": 2.5, "unit": "µg/mL"}, {"measurement": "MIC", "setting": "Penicillium chrysogenum", "value": 2.5, "unit": "µg/mL"}, {"measurement": "MIC", "setting": "[1]; pH 6.8, nutrient agar", "value": 250, "unit": "µg/mL"}, {"measurement": "MIC", "setting": "[1]; pH 8.2, nutrient agar", "value": "> 500", "unit": "µg/mL"}, {"measurement": "MIC", "setting": "Pseudomonas aeruginosa; pH 6.8, nutrient agar", "value": 250, "unit": "µg/mL"}, {"measurement": "MIC", "setting": "Pseudomonas aeruginosa; pH 8.2, nutrient agar", "value": 500, "unit": "µg/mL"}]}
